Results: US20140315786A1, “USE OF INTRACELLULAR ENZYMES FOR THE RELEASE OF COVALENTLY LINKED BIOACTIVES” (Catabasis Pharmaceuticals, Inc., priority 2011, published 2014)
Blank lines part the entries; values can stand above or below the compound they belong to.

Assays:
[1] = system: NFκB; assay: NFκB-driven luciferase reporter assay in LPS-challenged RAW 264.7 macrophages; type: cell-based; details: Mus musculus, RAW264.7; RAW 264.7, LPS 200 ng/mL; linked bioactive; read-out: IC50 in an NFkB assay
Experimental: RAW 264.7 cells transfected with an NFκB-driven luciferase reporter were plated in 96 well plates. Cells were treated with Vehicle (0.1% ethanol) or test compounds for 2 hours. As a positive control for inhibition of NFκB signaling, 6 wells were treated with […]. Cells were then challenged with 200 ng/mL LPS for 3 hours in the presence of test compounds. A subset of wells treated with vehicle remained unstimulated with LPS to determine the floor signal of the assay. NFκB driven luciferase activity was developed by addition of BriteLite luciferase kit (PERKIN ELMER®) and measured using a Victor V plate reader. NFκB activity (luciferase activity) for each treatment was normalized to Vehicle wells treated with LPS (% NFκB Response).

[2] = target: T1, FAAH-1 (Homo sapiens, UniProt O00519); assay: Hydrolysis in homogenate of COS-7 cells overexpressed with FAAH-1; type: biochemical
T1 construct: expressed in transfected cells; host or cells: COS-7
T1 sequence (O00519 1-579): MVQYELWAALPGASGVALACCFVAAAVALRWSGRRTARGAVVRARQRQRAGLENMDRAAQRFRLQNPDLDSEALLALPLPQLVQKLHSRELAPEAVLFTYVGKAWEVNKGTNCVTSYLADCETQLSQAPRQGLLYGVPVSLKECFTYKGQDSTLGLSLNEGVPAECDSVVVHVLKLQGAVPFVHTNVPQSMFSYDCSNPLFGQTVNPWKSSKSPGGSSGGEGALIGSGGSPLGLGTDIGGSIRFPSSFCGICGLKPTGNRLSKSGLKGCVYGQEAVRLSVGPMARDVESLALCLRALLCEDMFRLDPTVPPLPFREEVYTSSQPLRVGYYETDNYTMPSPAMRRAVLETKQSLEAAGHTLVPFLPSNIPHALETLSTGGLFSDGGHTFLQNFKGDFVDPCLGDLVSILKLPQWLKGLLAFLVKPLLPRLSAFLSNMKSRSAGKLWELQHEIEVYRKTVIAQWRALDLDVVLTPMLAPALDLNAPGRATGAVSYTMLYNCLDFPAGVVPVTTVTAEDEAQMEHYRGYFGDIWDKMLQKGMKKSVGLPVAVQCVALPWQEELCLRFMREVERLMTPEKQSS
Experimental: (§1) Hydrolysis experiments using COS-7 cells overexpressed with either FAAH-1 or FAAH-2. […] The next day, cells were transfected, in duplicate, with 10 μg Vector control, flag-FAAH-1 or flag-FAAH-2 plasmids using Lipofectamine 2000 (Invitrogen) according to the manufacturer's protocol. 24 hours post transfection, cells were washed 1× in cold PBS, aspirated dry, and then scraped off the plate in the presence of 0.6 mL reaction buffer (50 mM HEPES, pH 9.0; 1 mM EDTA). Cells were then homogenated using a VWR VDI 12 Adaptable Homogenizer, on ice for 1 minute, and the sample was then clarified by centrifugation at 6,000 g for 5 minutes. The supernatant of this homogenated fraction was then used for FAAH hydrolysis assays. […] Gel densitometry was performed and the % FAAH extracted in each successive lysis conditions was determined according to standard procedures.
(§2) The following hydrolysis experiments were performed using COS-7 cells containing overexpressed FAAH-1 or FAAH-2. […] Briefly, the hydrolysis experiments were carried out in Eppendorf tubes using procedures similar to the one described above. […] At time=0, 1, and 3 h, the protein was precipitated with acetonitrile.

[3] = system: ApoB secretion in HepG2 cells; assay: ApoB secretion in HepG2 cells (oleate stimulated, ELISA); type: cell-based; details: Homo sapiens, linked bioactive
Experimental: HcpG2 cells (ATCC) were seeded at 10,000 cells per well in 96 well plates. After adhering overnight, growth media (10% FBS in DMEM) was removed and cells were serum starved for 24 hours in DMEM containing 0.1% fatty acid free bovine serum albumin (BSA, SIGMA®). Cells were then treated with the compounds. Niacin at 5 mM was used as a positive control. All treatments were performed in triplicate. Simultaneous with compound treatment, ApoB secretion was stimulated with the addition of […] complexed to fatty acid free BSA in a 5:1 molar ratio. Incubation with compounds and oleate was conducted for 24 hours. Media supernatants were removed and ApoB concentrations were measured using ELISA kits (MABTECH AB®). Percent inhibition of ApoB secretion was determined by normalizing data to vehicle treated wells. For a given compound, an IC50 (concentration at which 50% of ApoB secretion is inhibited) can also be determined by using a 4 parameter-fit inhibition curve model (GRAPH PAD PRISM®). In each experiment, cell viability was determined using the ATPlite 1-Step kit (PERKIN ELMER®), such that compound effects due to cytotoxicity could be monitored.

[4] = Rat liver lysate hydrolysis assay (FAAH and thiol reductase promoted cleavage); type: in vitro ADME
Experimental: The rat liver lysate hydrolysis experiment was performed in Eppendorf tubes, by adding the necessary amount of water for the assay first. A 10× buffer solution with final concentrations of HEPES and EDTA of 50 mM and 1 mM respectively was prepared from 500 mM HEPES and 10 mM EDTA in water. Rat liver lysate was removed from −80° C. storage, thawed and centrifuged at 4000 g for 5 min. A volume of the supernatant was transferred to the Eppendorf tube yielding a final concentration in the assay of 3 mg/mL rat liver lysate. The tube was gently inverted to mix the components. The reactions are then place in a 37° C. incubator for 20 min allowing the reaction mixture to reach 37° C. before the reaction was initiated.
To initiate the hydrolysis reaction, the samples were removed from the incubator and the compounds of the invention were added, as a DMSO solution, prepared in a manner to allow for <1% final DMSO concentration and 5 μM final compound concentration. […]
This rat liver lysate hydrolysis assay was used to assess the hydrolysis of bis-fatty acid linked bioactives into individual components. As an illustrative example, the bis-fatty acid cystamine linked bioactive VI-7 was assessed in this rat liver lysate assay. […] The amount of cysteamine that was formed could be quantitated by LC-MS/MS by carrying out an initial derivatization with Ellman's reagent. […] 50 μl of the tissue lysate reaction mixture was transferred to a 1.5 mL eppendorf tube and derivatization of cysteamine was performed with 50 μl 10 mM Ellman's reagent (5,5′ dithio-bis(2-nitrobenzoic acid). Samples were incubated at room temperature for 10 minutes, vortex for 1 minute followed by protein precipitation by addition of 300 μl of acetonitrile containing IS and 0.2% butylated hydroxyanisole (BHA). Supernatant was transferred to a clean LC vial and 10 μl of the sample was injected on LC-MS/MS for the measurement of cysteamine. The concentration of cysteamine was measured by LC-MS/MS. […]

[5] = target: T2, FAAH-2 (Homo sapiens, UniProt Q6GMR7); assay: Hydrolysis in homogenate of COS-7 cells overexpressed with FAAH-2; type: biochemical; details: FIG. 9B; 5 μM inhibitor
T2 construct: expressed in transfected cells; host or cells: COS-7
T2 sequence (Q6GMR7 1-532): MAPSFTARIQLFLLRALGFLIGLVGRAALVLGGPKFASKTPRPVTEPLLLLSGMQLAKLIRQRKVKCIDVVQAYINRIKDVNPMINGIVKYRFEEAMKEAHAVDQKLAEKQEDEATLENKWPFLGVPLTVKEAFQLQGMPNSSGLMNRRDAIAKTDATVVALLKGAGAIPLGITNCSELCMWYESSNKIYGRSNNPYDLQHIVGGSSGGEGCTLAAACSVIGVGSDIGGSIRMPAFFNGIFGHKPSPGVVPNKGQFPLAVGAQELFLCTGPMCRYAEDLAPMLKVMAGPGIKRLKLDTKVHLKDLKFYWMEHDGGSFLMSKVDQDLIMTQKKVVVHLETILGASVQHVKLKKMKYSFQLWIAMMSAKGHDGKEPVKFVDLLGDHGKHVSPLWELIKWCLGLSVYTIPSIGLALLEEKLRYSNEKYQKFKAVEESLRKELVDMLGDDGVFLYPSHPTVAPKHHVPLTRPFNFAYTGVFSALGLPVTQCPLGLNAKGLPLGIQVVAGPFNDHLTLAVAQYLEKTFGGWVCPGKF
Experimental: as §1, §2

SMILES: CC/C=C\C/C=C\C/C=C\C/C=C\C/C=C\CCCC(=O)NCCNC(=O)c1cccnc1 [III-1, N-(2-(5Z,8Z,11Z,14Z,17Z)-icosa-5,8,11,14,17-pentaenamidoethyl)nicotinamide]
IC50 [3]: 50 µM

SMILES: CC/C=C\C/C=C\C/C=C\C/C=C\C/C=C\C/C=C\CCC(=O)NCCNC(=O)c1cccnc1 [III-2, N-(2-(4Z,7Z,10Z,13Z,16Z,19Z)-docosa-4,7,10,13,16,19-hexaenamidoethyl)nicotinamide]
IC50 [3]: 50 µM

SMILES: CC/C=C\C/C=C\C/C=C\C/C=C\C/C=C\C/C=C\CCC(=O)NCCNC(=O)/C=C/C(=O)OC [IV-1, (E)-methyl 4-(2-(4Z,7Z,10Z,13Z,16Z,19Z)-docosa-4,7,10,13,16,19-hexaenamidoethylamino)-4-oxobut-2-enoate]
IC50 [1]: 16 µM

SMILES: O=C(Nc1cccnc1)N1CCC(Cc2cccc(Oc3ccc(C(F)(F)F)cn3)c2)CC1 [PF-3845]
effect of FAAH inhibitor on formation of cysteamine from compound VI-7 in rat liver lysate ([4]; FIG. 7B, presence of inhibitor): essentially no increase in cysteamine
effect of inhibitor on rate of hydrolysis of compound I-1, FAAH-1 ([2]; FIG. 9A, 5 μM inhibitor): significantly reduced
effect of inhibitor on rate of formation of DHA from compound I-1, FAAH-1 ([2]; FIG. 9C, 5 μM inhibitor): significantly inhibited
effect of inhibitor on hydrolysis of compound I-1, FAAH-2 [5]: not as effective as URB597

SMILES: CC/C=C\C/C=C\C/C=C\C/C=C\C/C=C\C/C=C\CCC(=O)NCCNC(=O)CCC/C=C\C/C=C\C/C=C\C/C=C\C/C=C\CC [VI-5, (4Z,7Z,10Z,13Z,16Z,19Z)-docosa-4,7,10,13,16,19-hexaenoic acid [2-((5Z,8Z,11Z,14Z,17Z)-icosa-5,8,11,14,17-pentaenoylamino)-ethyl]-amide]
IC50 [1]: 63 µM

Other lines, results leading:

IC50 [1]: 30 to 35 µM
hydrolysis (disappearance of compound) in COS-7 cells overexpressed with FAAH-1 ([2]; FIG. 9A, 5 μM, absence of any inhibitor, 0-3 h): significant hydrolysis
appearance of DHA from compound, FAAH-1 ([2]; FIG. 9C, 5 μM, no inhibitor): time dependent formation of DHA
SMILES: CC/C=C\C/C=C\C/C=C\C/C=C\C/C=C\C/C=C\CCC(=O)NCCNC(=O)c1ccccc1O [Compound I-1, N-(2-(4Z,7Z,10Z,13Z,16Z,19Z)-docosa-4,7,10,13,16,19-hexaenamidoethyl)-2-hydroxybenzamide]

IC50 [3]: 10 µM
SMILES: CC/C=C\C/C=C\C/C=C\C/C=C\C/C=C\C/C=C\CCC(=O)N1CCN(C(=O)CCC/C=C\C/C=C\C/C=C\C/C=C\C/C=C\CC)CC1 [VI-1, (4Z,7Z,10Z,13Z,16Z,19Z)-1-[4-((5Z,8Z,11Z,14Z,17Z)-icosa-5,8,11,14,17-pentaenoyl)-piperazin-1-yl]-docosa-4,7,10,13,16,19-hexaen-1-one]

IC50 [1]: 68 µM
SMILES: CC/C=C\C/C=C\C/C=C\C/C=C\C/C=C\C/C=C\CCC(=O)NCCNC(=O)CC/C=C\C/C=C\C/C=C\C/C=C\C/C=C\C/C=C\CC [VI-6, (4Z,7Z,10Z,13Z,16Z,19Z)-docosa-4,7,10,13,16,19-hexaenoic acid [2-((4Z,7Z,10Z,13Z,16Z,19Z)-docosa-4,7,10,13,16,19-hexaenoylamino)-ethyl]-amide]

hydrolysis in rat liver lysate ([4]; FIG. 7A, 5 μM compound, 3 mg/mL rat liver lysate, 37° C.): time-dependent hydrolysis
formation of cysteamine in rat liver lysate ([4]; FIG. 7B, absence of the FAAH inhibitor PF-3845): time dependent formation of cysteamine
SMILES: CC/C=C\C/C=C\C/C=C\C/C=C\C/C=C\C/C=C\CCC(=O)NCCSSCCNC(=O)CCC/C=C\C/C=C\C/C=C\C/C=C\C/C=C\CC [VI-7, (4Z,7Z,10Z,13Z,16Z,19Z)-docosa-4,7,10,13,16,19-hexaenoic acid {2-[2-((5Z,8Z,11Z,14Z,17Z)-icosa-5,8,11,14,17-pentaenoylamino)-ethyldisulfanyl]-ethyl}-amide]
